What was measured:
[1] = Mutagenicity in Salmonella typhimurium TA100 in presence of liver S9 fraction by AMES test; assay type: toxicity, subcellular; conditions: salmonella enterica subsp. enterica serovar typhimurium
[2] = Mutagenicity in Salmonella typhimurium TA98 in presence of liver S9 fraction by AMES test; assay type: toxicity, subcellular; conditions: salmonella enterica subsp. enterica serovar typhimurium
[3] = Mutagenicity in Salmonella typhimurium TA100 by AMES test; assay type: toxicity; conditions: salmonella enterica subsp. enterica serovar typhimurium
[4] = Mutagenicity in Salmonella typhimurium TA98 by AMES test; assay type: toxicity; conditions: salmonella enterica subsp. enterica serovar typhimurium
Hepatitis C virus [5] = test: Antiviral activity against Hepatitis C virus subtype 1b harboring NS5A L31V/Y93H double mutant infected in Huh 7.5.1 cells assessed as reduction in viral replication incubated for 3 days by NK5.1 luciferase reporter gene assay; assay type: functional, organism-based, Hepacivirus hominis; conditions: Huh-7.5.1, 72 h
Hepatitis C virus [6] = test: Antiviral activity against Hepatitis C virus subtype 2a infected in Huh 7.5.1 cells assessed as reduction in viral replication incubated for 3 days by JC1 Gaussia luciferase reporter gene assay; assay type: functional, organism-based, Hepacivirus hominis; conditions: Huh-7.5.1, 72 h
Hepatitis C virus [7] = test: Antiviral activity against Hepatitis C virus subtype 1b harboring NS5A L31V mutant infected in Huh 7.5.1 cells assessed as reduction in viral replication incubated for 3 days by NK5.1 luciferase reporter gene assay; assay type: functional, organism-based, Hepacivirus hominis; conditions: Huh-7.5.1, 72 h
Hepatitis C virus [8] = test: Antiviral activity against Hepatitis C virus subtype 1b harboring NS5A Y93H mutant infected in Huh 7.5.1 cells assessed as reduction in viral replication incubated for 3 days by NK5.1 luciferase reporter gene assay; assay type: functional, organism-based, Hepacivirus hominis; conditions: Huh-7.5.1, 72 h
Hepatitis C virus [9] = test: Antiviral activity against Hepatitis C virus subtype 3a infected in Huh 7.5.1 cells assessed as reduction in viral replication incubated for 3 days by S52-Feo luciferase reporter gene assay; assay type: functional, organism-based, Hepacivirus hominis; conditions: Huh-7.5.1, 72 h
Hepatitis C virus [10] = test: Antiviral activity against Hepatitis C virus subtype 1b infected in Huh 7.5.1 cells assessed as reduction in viral replication incubated for 3 days by NK5.1 luciferase reporter gene assay; assay type: functional, organism-based, Hepacivirus hominis; conditions: Huh-7.5.1, 72 h

For `CCCCCCCCCC(c1ccccc1)n1c2cc(N)ccc2c2ccc(N)cc21` (stereo not given), the Activity [1] was “Non-Toxic”, the Activity [2] was “Non-Toxic” and the Activity [3] was “Non-Toxic”. The Activity [4] was “Non-Toxic”.

In the case of `CCCCCCCCCCCCn1c2cc(N)ccc2c2ccc(N)cc21`, the Activity [1] is reported as “Non-Toxic”, the Activity [2] is reported as “Non-Toxic” and the Activity [3] is reported as “Non-Toxic”. For the same molecule, the Activity [4] was “Non-Toxic”.

In the case of `Nc1ccc2c3ccc(N)cc3n(CCCCCCCCCCN3CCOCC3)c2c1`, the Activity [1] is reported as “Non-Toxic”, the Activity [2] is reported as “Non-Toxic” and the Activity [3] is reported as “Non-Toxic”. The Activity [4] was “Non-Toxic”.

With `Nc1ccc2c(c1)C(c1ccc(Br)cc1)c1cc(N)ccc1-2` the Activity [1] was “Non-Toxic”, the Activity [2] was “Toxic” and the Activity [3] was “Non-Toxic”. The Activity [4] was “Non-Toxic”.

In the case of `Nc1ccc2c3ccc(N)cc3n(Cc3cccc(OC4CCCC4)c3)c2c1`, the Activity [1] is reported as “Non-Toxic”, the Activity [2] is reported as “Toxic” and the Activity [3] is reported as “Non-Toxic”. The Activity [4] was “Non-Toxic”.

With `Nc1ccc2c(c1)C(c1ccc(C(F)(F)F)cc1)c1cc(N)ccc1-2` the Activity [1] was “Non-Toxic”, the Activity [2] was “Toxic” and the Activity [3] was “Non-Toxic”. For the same molecule, the Activity [4] was “Non-Toxic”.

With `CCCCC1(CCCC)c2cc(NC(=O)[C@@H]3C[C@@H](O)CN3C(=O)[C@H](NC(=O)OC)c3ccccc3)ccc2-c2ccc(NC(=O)[C@@H]3C[C@@H](O)CN3C(=O)[C@H](NC(=O)OC)c3ccccc3)cc21` the EC50 (Hepatitis C virus [5]) was 41.4 nM, the EC50 (Hepatitis C virus [6]) was 1.2 nM and the EC50 (Hepatitis C virus [7]) was 0.003 nM. The EC50 (Hepatitis C virus [8]) was 0.88 nM, the EC50 (Hepatitis C virus [9]) was 0.016 nM and the EC50 (Hepatitis C virus [10]) was 0.002 nM.

In the case of `CCCCCCCCCCn1c2cc(N)ccc2c2ccc(N)cc21`, the Activity [1] is reported as “Non-Toxic”, the Activity [2] is reported as “Toxic” and the Activity [3] is reported as “Non-Toxic”. The Activity [4] was “Non-Toxic”.

In the case of `CCCCOc1ccc(Cn2c3cc(N)ccc3c3ccc(N)cc32)cc1`, the Activity [1] is reported as “Non-Toxic”, the Activity [2] is reported as “Toxic” and the Activity [3] is reported as “Non-Toxic”. For the same molecule, the Activity [4] was “Non-Toxic”.

For `COCCOc1cccc(Cn2c3cc(N)ccc3c3ccc(N)cc32)c1`, the Activity [1] was “Non-Toxic”, the Activity [2] was “Toxic” and the Activity [3] was “Non-Toxic”. For the same molecule, the Activity [4] was “Non-Toxic”.

In the case of `Nc1ccc2c(c1)C(CCCC(F)(F)F)(CCCC(F)(F)F)c1cc(N)ccc1-2`, the Activity [1] is reported as “Non-Toxic”, the Activity [2] is reported as “Toxic” and the Activity [3] is reported as “Non-Toxic”. The Activity [4] was “Non-Toxic”.

In the case of `Nc1ccc2c(c1)C(c1ccc(F)cc1)c1cc(N)ccc1-2`, the Activity [1] is reported as “Non-Toxic”, the Activity [2] is reported as “Toxic” and the Activity [3] is reported as “Non-Toxic”. The Activity [4] was “Non-Toxic”.

With `CCCCn1c2cc(N)ccc2c2ccc(N)cc21` the Activity [1] was “Toxic”, the Activity [2] was “Toxic” and the Activity [3] was “Toxic”. For the same molecule, the Activity [4] was “Toxic”.

With `Nc1ccc2c(c1)C(Cc1ccc(C(F)(F)F)cc1)c1cc(N)ccc1-2` the Activity [1] was “Non-Toxic”, the Activity [2] was “Toxic” and the Activity [3] was “Non-Toxic”. For the same molecule, the Activity [4] was “Toxic”.

For `Nc1ccc2c(c1)C(CCCCC(F)(F)F)(CCCCC(F)(F)F)c1cc(N)ccc1-2`, the Activity [1] was “Non-Toxic”, the Activity [2] was “Non-Toxic” and the Activity [3] was “Non-Toxic”. The Activity [4] was “Non-Toxic”.

With `CCCCC(c1ccccc1)n1c2cc(N)ccc2c2ccc(N)cc21` (stereo not given) the Activity [1] was “Non-Toxic”, the Activity [2] was “Toxic” and the Activity [3] was “Non-Toxic”. The Activity [4] was “Non-Toxic”.

For `CC(C)=CC1c2cc(N)ccc2-c2ccc(N)cc21`, the Activity [1] was “Toxic”, the Activity [2] was “Toxic” and the Activity [3] was “Toxic”. The Activity [4] was “Toxic”.

For `Nc1ccc2c3ccc(N)cc3n(C(C3CC3)C3CC3)c2c1`, the Activity [1] was “Toxic”, the Activity [2] was “Toxic” and the Activity [3] was “Non-Toxic”. For the same molecule, the Activity [4] was “Non-Toxic”.

In the case of `CC(c1ccccc1)n1c2cc(N)ccc2c2ccc(N)cc21` (stereo not given), the Activity [1] is reported as “Toxic”, the Activity [2] is reported as “Toxic” and the Activity [3] is reported as “Non-Toxic”. The Activity [4] was “Non-Toxic”.

With `CC(C)c1ccc(C2c3cc(N)ccc3-c3ccc(N)cc32)cc1` the Activity [1] was “Non-Toxic”, the Activity [2] was “Toxic” and the Activity [3] was “Non-Toxic”. The Activity [4] was “Non-Toxic”.

For `CCCCCCOc1ccc(Cn2c3cc(N)ccc3c3ccc(N)cc32)cc1`, the Activity [1] was “Non-Toxic”, the Activity [2] was “Toxic” and the Activity [3] was “Non-Toxic”. For the same molecule, the Activity [4] was “Non-Toxic”.

With `Nc1ccc2c(c1)C(=Cc1ccncc1)c1cc(N)ccc1-2` the Activity [1] was “Toxic”, the Activity [2] was “Toxic” and the Activity [3] was “Non-Toxic”. The Activity [4] was “Non-Toxic”.

For `CCCCC(CCCC)n1c2cc(N)ccc2c2ccc(N)cc21`, the Activity [1] was “Non-Toxic”, the Activity [2] was “Non-Toxic” and the Activity [3] was “Non-Toxic”. For the same molecule, the Activity [4] was “Non-Toxic”.

With `Nc1ccc2c(c1)C(c1ccc3ccccc3c1)c1cc(N)ccc1-2` the Activity [1] was “Non-Toxic”, the Activity [2] was “Toxic” and the Activity [3] was “Non-Toxic”. For the same molecule, the Activity [4] was “Non-Toxic”.

For `CC(C)(C)c1ccc(C2c3cc(N)ccc3-c3ccc(N)cc32)cc1`, the Activity [1] was “Non-Toxic”, the Activity [2] was “Toxic” and the Activity [3] was “Non-Toxic”. For the same molecule, the Activity [4] was “Non-Toxic”.

For `Nc1ccc2c(c1)C(=Cc1ccc(C(F)(F)F)cc1)c1cc(N)ccc1-2`, the Activity [1] was “Non-Toxic”, the Activity [2] was “Toxic” and the Activity [3] was “Non-Toxic”. For the same molecule, the Activity [4] was “Toxic”.

In the case of `CCCC1(CCC)c2cc(N)ccc2-c2ccc(N)cc21`, the Activity [1] is reported as “Non-Toxic”, the Activity [2] is reported as “Toxic” and the Activity [3] is reported as “Non-Toxic”. The Activity [4] was “Non-Toxic”.
